Test results published in patent US11897862B2 (Gilead Sciences, Inc., priority 2022, dated 2024).

How the values were obtained:
IKZF2 = IKZF2 (Homo sapiens, UniProt Q96SW2+Q9UKS7); assay: HEK293 HiBiT in vitro degradation of IKZF2; assay type: cell-based; parameters: expressed in transfected cells; conditions: for Dmax: HEK293, HEK293 HiBiT; for Dmax / IKZF2 Dmax: maximum degradation at the highest concentration tested; for DC50 / IKZF2 Dmax: HEK293 HiBiT; for DC50: 18-24 hr incubation, normalized to DMSO control, read-out: IKZF2 EC50
IKZF2, sequence (Q9UKS7 1-500 isoform Q9UKS7-2): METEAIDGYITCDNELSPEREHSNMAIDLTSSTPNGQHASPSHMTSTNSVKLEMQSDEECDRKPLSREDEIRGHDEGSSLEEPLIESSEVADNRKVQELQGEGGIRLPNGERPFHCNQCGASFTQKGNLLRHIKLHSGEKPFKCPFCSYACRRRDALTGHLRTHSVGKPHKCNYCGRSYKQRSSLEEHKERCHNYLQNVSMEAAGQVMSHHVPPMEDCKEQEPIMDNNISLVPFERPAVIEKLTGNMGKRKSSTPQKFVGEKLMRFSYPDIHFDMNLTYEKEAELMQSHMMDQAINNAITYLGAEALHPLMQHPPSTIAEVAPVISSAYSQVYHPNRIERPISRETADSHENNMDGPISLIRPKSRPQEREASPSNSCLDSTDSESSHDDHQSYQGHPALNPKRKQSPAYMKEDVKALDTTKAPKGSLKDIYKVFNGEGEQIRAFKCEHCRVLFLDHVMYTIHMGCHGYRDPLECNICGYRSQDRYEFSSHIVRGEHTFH
IKZF2, sequence (Q96SW2 whole entry): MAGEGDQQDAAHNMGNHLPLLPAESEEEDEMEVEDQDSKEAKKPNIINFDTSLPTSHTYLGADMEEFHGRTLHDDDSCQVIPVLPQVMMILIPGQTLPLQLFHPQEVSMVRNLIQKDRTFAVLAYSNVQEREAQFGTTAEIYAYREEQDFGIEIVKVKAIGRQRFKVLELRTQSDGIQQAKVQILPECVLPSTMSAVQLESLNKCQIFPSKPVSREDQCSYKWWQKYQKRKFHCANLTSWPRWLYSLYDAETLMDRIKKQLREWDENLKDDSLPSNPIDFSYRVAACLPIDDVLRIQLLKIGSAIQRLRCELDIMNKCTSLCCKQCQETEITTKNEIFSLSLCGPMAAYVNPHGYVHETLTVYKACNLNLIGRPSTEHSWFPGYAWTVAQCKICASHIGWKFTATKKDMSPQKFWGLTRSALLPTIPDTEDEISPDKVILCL
IKZF2, sequence (Q16531 whole entry partner): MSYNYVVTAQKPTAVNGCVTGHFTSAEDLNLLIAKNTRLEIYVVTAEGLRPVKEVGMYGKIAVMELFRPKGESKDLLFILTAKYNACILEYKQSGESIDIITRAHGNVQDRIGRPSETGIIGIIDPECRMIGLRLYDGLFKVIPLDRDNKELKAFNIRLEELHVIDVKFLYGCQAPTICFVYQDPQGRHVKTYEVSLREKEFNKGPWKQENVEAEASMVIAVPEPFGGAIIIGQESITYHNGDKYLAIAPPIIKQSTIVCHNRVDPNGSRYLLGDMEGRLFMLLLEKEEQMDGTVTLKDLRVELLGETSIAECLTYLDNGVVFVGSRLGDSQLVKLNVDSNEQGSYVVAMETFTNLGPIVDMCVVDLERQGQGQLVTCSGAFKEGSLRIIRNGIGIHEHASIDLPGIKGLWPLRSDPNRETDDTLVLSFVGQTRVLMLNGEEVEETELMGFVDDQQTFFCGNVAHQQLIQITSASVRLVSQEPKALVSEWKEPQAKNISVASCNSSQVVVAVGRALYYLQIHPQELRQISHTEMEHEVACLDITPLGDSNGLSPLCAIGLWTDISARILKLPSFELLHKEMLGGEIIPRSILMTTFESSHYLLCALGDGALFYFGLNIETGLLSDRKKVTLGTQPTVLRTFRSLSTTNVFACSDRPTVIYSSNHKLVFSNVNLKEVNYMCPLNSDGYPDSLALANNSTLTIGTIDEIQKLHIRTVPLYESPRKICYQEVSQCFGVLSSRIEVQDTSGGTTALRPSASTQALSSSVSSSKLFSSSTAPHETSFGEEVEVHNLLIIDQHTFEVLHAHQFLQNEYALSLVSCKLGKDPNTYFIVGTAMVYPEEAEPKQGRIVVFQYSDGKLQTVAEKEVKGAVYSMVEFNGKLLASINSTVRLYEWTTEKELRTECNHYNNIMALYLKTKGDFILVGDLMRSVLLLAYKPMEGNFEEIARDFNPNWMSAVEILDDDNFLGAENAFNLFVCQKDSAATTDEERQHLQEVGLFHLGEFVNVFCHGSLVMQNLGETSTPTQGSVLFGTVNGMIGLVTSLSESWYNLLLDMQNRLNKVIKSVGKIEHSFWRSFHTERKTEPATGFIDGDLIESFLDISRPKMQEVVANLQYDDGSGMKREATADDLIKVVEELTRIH
How it was run: (§1)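 Stable HEK293 reporter pools, each with one integrated tet-inducible copy of a HiBiT-tagged target, were induced with doxycycline overnight at 37 °C. After 18-24 h with compound dilution series, Nano-Glo lysis and luminescence yielded EC50 and Dmax values.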

IKZF1 = biological target: T1, IKZF1 (Homo sapiens, UniProt Q13422+Q96SW2); assay: HEK293 HiBiT in vitro degradation of IKZF1; assay type: cell-based; conditions: for Dmax: HEK293, HEK293 HiBiT; for Dmax / IKZF1 Dmax: maximum degradation at the highest concentration tested; for DC50 / IKZF1 Dmax: HEK293 HiBiT; for DC50: 18-24 hr incubation, normalized to DMSO control, read-out: IKZF1 EC50
T1 construct: expressed in transfected cells
T1 sequence (Q13422 whole entry): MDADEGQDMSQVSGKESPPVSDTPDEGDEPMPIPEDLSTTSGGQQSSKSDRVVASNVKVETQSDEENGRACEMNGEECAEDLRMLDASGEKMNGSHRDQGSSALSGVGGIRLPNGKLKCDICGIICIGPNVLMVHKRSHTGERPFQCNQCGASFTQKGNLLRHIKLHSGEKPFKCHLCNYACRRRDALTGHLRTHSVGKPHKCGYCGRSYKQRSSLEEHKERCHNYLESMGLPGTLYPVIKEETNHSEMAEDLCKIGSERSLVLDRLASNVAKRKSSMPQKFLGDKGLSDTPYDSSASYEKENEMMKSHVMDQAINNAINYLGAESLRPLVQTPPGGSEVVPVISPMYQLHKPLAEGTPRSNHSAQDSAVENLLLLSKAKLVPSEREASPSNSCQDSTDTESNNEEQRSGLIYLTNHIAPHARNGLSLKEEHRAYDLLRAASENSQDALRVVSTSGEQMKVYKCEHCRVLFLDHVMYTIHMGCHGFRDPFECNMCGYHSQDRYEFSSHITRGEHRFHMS
T1 sequence (Q96SW2 whole entry): as the sequence (Q96SW2 whole entry) above
T1 sequence (Q16531 whole entry partner): as the sequence (Q16531 whole entry partner) above
How it was run: as §1

Dmax (IKZF2) [%]	DC50 (IKZF2) [nM]	Dmax (IKZF1) [%]	DC50 (IKZF1) [nM]	IKZF2 Dmax (IKZF2) [%]	IKZF1 Dmax (IKZF1) [%]	Compound
98	1	42	45	–	–	[2H]C1(N[C@H]2CCCC[C@@H]2Cc2ccc3c(c2F)CN(C2CCC(=O)NC2=O)C3=O)CCCC1 (some centres unmarked) [Example 212]
–	9	–	> 1000	97	–	CC(N[C@H]1CCCC[C@@H]1Cc1ccc2c(c1)CN(C1CCC(=O)NC1=O)C2=O)C1(C)CC1 (some centres unmarked) [Example 235]
97	3	26	68	–	–	O=C1CCC(N2Cc3cc(C[C@H]4CCCC[C@@H]4NC4CCC(C(F)(F)F)CC4)ccc3C2=O)C(=O)N1 (single isomer, unassigned) [Example 121]
92	353	–	> 1000	–	–	O=C1CCC(N2Cc3c(ccc(C[C@H]4CCCC[C@@H]4N(Cc4ccccc4)Cc4ccccc4)c3F)C2=O)C(=O)N1 (stereo partly drawn) [Example 5, 3-(5-(((1R,2S)-2-(dibenzylamino)cyclohexyl)methyl)-4-fluoro-1-oxoisoindolin-2-yl)piperidine-2,6-dione]
–	3	–	122	95	43	O=C1CCC(N2Cc3c(ccc(C[C@H]4OCCC[C@@H]4NC4CCC5(CC4)CC5(F)F)c3F)C2=O)C(=O)N1 (single isomer, unassigned) [Example 365]
92	6	–	> 1000	–	–	O=C1CC[C@H](N2Cc3c(ccc(C[C@H]4OCCC[C@@H]4NC4CCCCC4)c3F)C2=O)C(=O)N1 (single isomer, unassigned) [Example 338]
93	6	–	> 1000	–	–	O=C1CCC(N2Cc3cc(C[C@H]4CCCC[C@@H]4NC4CC4)ccc3C2=O)C(=O)N1 (stereo partly drawn) [Example 47, 3-(5-(((1R,2S)-2-(cyclopropylamino)cyclohexyl)methyl)-1-oxoisoindolin-2-yl)piperidine-2,6-dione]
72	168	–	> 1000	–	–	O=C1CCC(N2Cc3cc(C[C@H]4CCC[C@@H]4NC4CCC(F)(F)CC4)ccc3C2=O)C(=O)N1 (some centres unmarked) [Example 178]
96	4	31	76	–	–	O=C1CCC(N2Cc3cc(C[C@H]4CCCC[C@@H]4NC4CCCC[C@@H]4F)ccc3C2=O)C(=O)N1 (some centres unmarked) [Example 105]
89	37	–	> 1000	–	–	O=C1CCC(N2Cc3cc(C[C@H]4CCCC[C@@H]4NCC4CCOCC4)ccc3C2=O)C(=O)N1 (some centres unmarked) [Example 71]
74	30	–	> 1000	–	–	O=C1CCC(N2Cc3cc(C[C@H]4CCCC[C@@H]4N4CC(OCC5CC5)C4)ccc3C2=O)C(=O)N1 (stereo partly drawn) [Example 67, 3-(5-(((1R,2S)-2-(3-(cyclopropylmethoxy)azetidin-1-yl)cyclohexyl)methyl)-1-oxo-isoindolin-2-yl)piperidine-2,6-dione]
89	25	–	> 1000	–	–	CC(C)(C)CN[C@H]1CCCC[C@@H]1Cc1ccc2c(c1)CN(C1CCC(=O)NC1=O)C2=O (stereo partly drawn) [Example 57, 3-(5-(((1R,2S)-2-(neopentylamino)cyclohexyl)methyl)-1-oxoisoindolin-2-yl)piperidine-2,6-dione]
–	23	–	> 1000	–	–	O=C1CCC(N2Cc3cc(C[C@H]4CCCC[C@@H]4NCc4ccccc4)ccc3C2=O)C(=O)N1 (single isomer, unassigned) [Example 25]
71	131	–	> 1000	–	–	O=C1CCC(N2Cc3cc(C[C@H]4CCCC[C@@H]4NCc4ccccn4)ccc3C2=O)C(=O)N1 (stereo partly drawn) [Example 45, 3-(1-oxo-5-(((1R,2S)-2-((pyridin-2-ylmethyl)amino)cyclohexyl)methyl)isoindolin-2-yl)piperidine-2,6-dione]
97	2	39	62	–	–	CC(C)N[C@H]1CC(F)(F)CC[C@@H]1Cc1ccc2c(c1)CN(C1CCC(=O)NC1=O)C2=O (some centres unmarked) [Example 348]
–	6	–	> 1000	96	–	O=C1CCC(N2Cc3cc(C[C@H]4CCCC[C@@H]4NC4CCCOC4)ccc3C2=O)C(=O)N1 (single isomer, unassigned) [Example 261]
55	76	–	> 1000	–	–	O=C1CCC(N2Cc3cc(C[C@H]4CCCCC[C@@H]4NC4CCC(F)(F)CC4)ccc3C2=O)C(=O)N1 (some centres unmarked) [Example 340]
100	18	34	231	–	–	O=C1CCC(N2Cc3cc(C[C@H]4CCCC[C@@H]4NC4CCc5cn[nH]c5C4)ccc3C2=O)C(=O)N1 (single isomer, unassigned) [Example 358]
88	27	–	> 1000	–	–	O=C1CCC(N2Cc3cc(C[C@H]4CC(F)(F)CC[C@@H]4NC4CCCCC4)ccc3C2=O)C(=O)N1 (stereo partly drawn) [Example 313, 3-(5-(((1S,2S)-2-(cyclohexylamino)-5,5-difluorocyclohexyl)methyl)-1-oxoisoindolin-2-yl)piperidine-2,6-dione]
–	9	–	> 1000	95	–	CC(N[C@H]1CCCC[C@@H]1Cc1ccc2c(c1)CN(C1CCC(=O)NC1=O)C2=O)C1(C(F)F)CC1 (some centres unmarked) [Example 312]
98	2	45	41	–	–	[2H]C1(N[C@H]2CCCC[C@@H]2Cc2ccc3c(c2F)CN(C2CCC(=O)NC2=O)C3=O)CC2(CC2)C1 (some centres unmarked) [Example 213]
–	8	–	78	96	37	O=C1CCC(N2Cc3c(ccc(C[C@H]4CCCC[C@@H]4NCC4CCOCC4)c3F)C2=O)C(=O)N1 (some centres unmarked) [Example 187]
78	26	–	> 500	–	–	O=C1CCC(N2Cc3c(ccc(C[C@H]4OCCC[C@@H]4NCC4CCC4)c3F)C2=O)C(=O)N1 (some centres unmarked) [Example 152]
81	91	–	> 1000	–	–	O=C1CCC(N2Cc3cc(C[C@H]4CCCC[C@@H]4NC4CCCCC4(F)F)ccc3C2=O)C(=O)N1 (some centres unmarked) [Example 111]
97	61	–	> 1000	–	–	COC(C)(C)CCN[C@H]1CCCC[C@@H]1Cc1ccc2c(c1)CN(C1CCC(=O)NC1=O)C2=O (some centres unmarked) [Example 134]
97	12	34	141	–	–	O=C1CCC(N2Cc3cc(C[C@H]4CCCC[C@@H]4NC4CCC5(CC4)COC5)ccc3C2=O)C(=O)N1 (stereo partly drawn) [Example 86, 3-(5-(((1R,2S)-2-((2-oxaspiro[3.5]nonan-7-yl)amino)cyclohexyl)methyl)-1-oxoisoindolin-2-yl)piperidine-2,6-dione]
63	65	–	> 1000	–	–	O=C1CCC(N2Cc3cc(C[C@H]4CCCC[C@@H]4NCC4OCCO4)ccc3C2=O)C(=O)N1 (stereo partly drawn) [Example 60, 3-(5-(((1R,2S)-2-(((1,3-dioxolan-2-yl)methyl)amino)cyclohexyl)methyl)-1-oxoisoindolin-2-yl)piperidine-2,6-dione]
96	20	–	> 1000	–	–	CC(N[C@H]1CCCO[C@@H]1Cc1ccc2c(c1F)CN(C1CCC(=O)NC1=O)C2=O)C1COC1 (some centres unmarked) [Example 318]
–	16	–	> 10000	88	–	O=C1CCC(N2Cc3cc(C[C@H]4OCCC[C@@H]4NC4CCCCC4)ccc3C2=O)C(=O)N1 (some centres unmarked) [Example 179]
